Experimental data from ChEMBL document CHEMBL1201862, “PubChem BioAssay data set” (2004).
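In this assay, cells in 96-well plates receive the compound at five concentrations for 48 hours. Endpoints are linearly interpolated between the surrounding concentrations. GI50 = concentration required for 50% inhibition of growth.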 Calls of active or inactive are those of the source. Cut-off read from the data, not from the text of the source: active = GI50 up to about 1.1 µM and inactive = higher.

What was measured:
Assay in all cases: NCI anticancer screen, dose series, 48 h
DLD-1 = test system: DLD-1
DMS-273 = test system: DMS-273
HOP-18 = test system: HOP-18
KM-20L2 = test system: KM-20L2
M19-MEL = test system: M19-MEL
SNB-78 = test system: SNB-78
XF498 = test system: XF498
DMS-114 = test system: DMS-114
RXF 631 = test system: RXF 631

CN(C)CC1CCCC/C1=N/OC(=O)c1ccc(Cl)cc1 (stereo not drawn)
GI50 (DLD-1): > 100 µM (inactive)
GI50 (DMS-273): > 100 µM (inactive)
GI50 (HOP-18): > 100 µM (inactive)
GI50 (KM-20L2): > 100 µM (inactive)
GI50 (M19-MEL): > 100 µM (inactive)
GI50 (SNB-78): > 100 µM (inactive)
GI50 (XF498): > 100 µM (inactive)

CCCCCCCC/C=C1\CCC(CN2CCOCC2)C1=O (stereo not drawn)
GI50 (DLD-1): 2.8 µM (inactive)
GI50 (DMS-114): 6.41 µM (inactive)
GI50 (HOP-18): 13.1 µM (inactive)
GI50 (KM-20L2): 16.3 µM (inactive)
GI50 (M19-MEL): 8.65 µM (inactive)
GI50 (RXF 631): 8.95 µM (inactive)
GI50 (SNB-78): 10.5 µM (inactive)
GI50 (XF498): 14.2 µM (inactive)

C=CCNC(=S)N1c2ccccc2NC(=O)CC1C (stereo not drawn)
GI50 (DMS-114): > 100 µM (inactive)
GI50 (DMS-273): > 100 µM (inactive)
GI50 (KM-20L2): > 100 µM (inactive)
GI50 (M19-MEL): > 100 µM (inactive)
GI50 (SNB-78): > 100 µM (inactive)
GI50 (XF498): > 100 µM (inactive)

CCNC(=O)O/N=C1/C=C2CC[C@@H]3C(CC[C@@]4(C)C3CC[C@@H]4OC(=O)NCC)[C@@]2(C)CC1 (stereo partly drawn)
GI50 (DLD-1): 5.9 µM (inactive)
GI50 (DMS-114): 1.66 µM (inactive)
GI50 (DMS-273): 1.99 µM (inactive)
GI50 (KM-20L2): 2.28 µM (inactive)
GI50 (M19-MEL): 3.13 µM (inactive)
GI50 (SNB-78): 2.67 µM (inactive)

C/N=C(\SC)N(C)c1nc(=[N+](C)C)ss1.[O-][Cl+3]([O-])([O-])[O-]
GI50 (DMS-273): > 100 µM (inactive)
GI50 (RXF 631): 2.28 µM (inactive)
GI50 (SNB-78): > 100 µM (inactive)
GI50 (XF498): 32.6 µM (inactive)

CC(C)c1cccc(C(C)C)c1NC(=O)C(=O)C1SC(=S)NC1=O (stereo not drawn)
GI50 (DLD-1): > 100 µM (inactive)
GI50 (DMS-273): > 100 µM (inactive)
GI50 (HOP-18): > 100 µM (inactive)
GI50 (KM-20L2): > 100 µM (inactive)
GI50 (M19-MEL): > 100 µM (inactive)
GI50 (RXF 631): > 100 µM (inactive)
GI50 (SNB-78): > 100 µM (inactive)
GI50 (XF498): > 100 µM (inactive)

O=c1oc2c3ccc4ccccc4c3n(CCN3CCCCC3)c2c2ccccc12
GI50 (DLD-1): 30.2 µM (inactive)
GI50 (DMS-114): > 76 µM (inactive)
GI50 (DMS-273): 38.3 µM (inactive)
GI50 (HOP-18): > 100 µM (inactive)
GI50 (KM-20L2): > 61 µM (inactive)
GI50 (M19-MEL): 25.6 µM (inactive)
GI50 (RXF 631): 24.6 µM (inactive)
GI50 (SNB-78): 20.9 µM (inactive)
GI50 (XF498): 21.4 µM (inactive)

COc1ccc(/C=C2\CCC(CCN3CCOCC3)C2=O)cc1 (stereo not drawn)
GI50 (DLD-1): > 100 µM (inactive)
GI50 (DMS-114): > 100 µM (inactive)
GI50 (DMS-273): > 100 µM (inactive)
GI50 (HOP-18): > 100 µM (inactive)
GI50 (KM-20L2): > 100 µM (inactive)
GI50 (M19-MEL): > 100 µM (inactive)
GI50 (SNB-78): > 100 µM (inactive)
GI50 (XF498): > 100 µM (inactive)

O=c1cccccc1NCCCCCCCNc1cccccc1=O
GI50 (DLD-1): 42.6 µM (inactive)
GI50 (DMS-273): 33.3 µM (inactive)
GI50 (KM-20L2): 38.1 µM (inactive)
GI50 (M19-MEL): 24 µM (inactive)
GI50 (RXF 631): 8.02 µM (inactive)
GI50 (SNB-78): 47.8 µM (inactive)
GI50 (XF498): 10.6 µM (inactive)

Cn1c(=O)c2nc(-c3ccc(Cl)cc3)oc2n(C)c1=O
GI50 (DLD-1): > 100 µM (inactive)
GI50 (DMS-114): > 100 µM (inactive)
GI50 (DMS-273): > 100 µM (inactive)
GI50 (HOP-18): > 100 µM (inactive)
GI50 (KM-20L2): > 100 µM (inactive)
GI50 (M19-MEL): > 100 µM (inactive)
GI50 (SNB-78): > 100 µM (inactive)
GI50 (XF498): > 100 µM (inactive)

CC1C(=O)N(C)C2(CO)C(=O)O[C@H](C)C12O (stereo partly drawn)
GI50 (DLD-1): > 100 µM (inactive)
GI50 (DMS-114): > 100 µM (inactive)
GI50 (HOP-18): > 100 µM (inactive)
GI50 (M19-MEL): > 100 µM (inactive)
GI50 (SNB-78): > 100 µM (inactive)

Cc1c(Cl)cccc1NC(=O)CC1C(=O)Nc2ccccc2S1(=O)=O (stereo not drawn)
GI50 (DLD-1): 15.1 µM (inactive)
GI50 (DMS-114): 16.5 µM (inactive)
GI50 (DMS-273): 7.69 µM (inactive)
GI50 (KM-20L2): 22.4 µM (inactive)
GI50 (M19-MEL): 20.4 µM (inactive)
GI50 (SNB-78): 20.2 µM (inactive)
GI50 (XF498): 15.2 µM (inactive)

C#CC[C@]12CC(=O)CC[C@H]1CC(=O)C2
GI50 (DLD-1): > 100 µM (inactive)
GI50 (DMS-273): > 100 µM (inactive)
GI50 (HOP-18): > 100 µM (inactive)
GI50 (KM-20L2): > 100 µM (inactive)
GI50 (M19-MEL): > 100 µM (inactive)
GI50 (RXF 631): > 100 µM (inactive)
GI50 (SNB-78): > 100 µM (inactive)

N=C(N)N/N=C(/CCN1CCCC1)CC(c1ccccc1)c1c(O)c2ccccc2oc1=O (stereo not drawn)
GI50 (DLD-1): > 100 µM (inactive)
GI50 (DMS-114): > 100 µM (inactive)
GI50 (KM-20L2): > 100 µM (inactive)
GI50 (M19-MEL): > 100 µM (inactive)
GI50 (RXF 631): > 100 µM (inactive)
GI50 (XF498): > 100 µM (inactive)

CC[C@](C)(O)C(=O)O[C@H]1C(=O)O[C@@H]2C[C@H]3C(C)=CC(=O)[C@@H](O)[C@]3(C)[C@H]3[C@@]4(O)OC[C@]32[C@@H]1[C@@H](C)[C@H]4O [GLAUCARUBINONE]
GI50 (DMS-273): 0.05 µM (active)
GI50 (M19-MEL): 0.05 µM (active)
GI50 (RXF 631): 0.543 µM (active)
GI50 (SNB-78): 0.0668 µM (active)

N#CC(C(=O)C(=O)Nc1ccc(Cl)c(Cl)c1)c1ccc(Cl)cc1 (stereo not drawn)
GI50 (DLD-1): 44.1 µM (inactive)
GI50 (DMS-114): 22.9 µM (inactive)
GI50 (DMS-273): > 100 µM (inactive)
GI50 (HOP-18): 41 µM (inactive)
GI50 (KM-20L2): > 100 µM (inactive)
GI50 (SNB-78): > 100 µM (inactive)
GI50 (XF498): 61 µM (inactive)

Cc1ccc(NC(=O)SCCC(=O)O)cc1NC(=O)SCCC(=O)O
GI50 (DLD-1): > 10 µM (inactive)
GI50 (DMS-114): > 100 µM (inactive)
GI50 (DMS-273): > 10 µM (inactive)
GI50 (KM-20L2): > 100 µM (inactive)
GI50 (SNB-78): > 100 µM (inactive)

CCOC(=O)/C(=C/c1ccc(OC)c(OC)c1)C(=O)c1ccccc1
GI50 (DLD-1): 15.4 µM (inactive)
GI50 (DMS-114): 15.2 µM (inactive)
GI50 (KM-20L2): 18.4 µM (inactive)
GI50 (M19-MEL): 19 µM (inactive)
GI50 (SNB-78): 17.1 µM (inactive)
GI50 (XF498): 14.9 µM (inactive)

C=C1CCc2occ(C)c2C2C1C1=C(CC(C)C1=O)C1OC12C (stereo not drawn)
GI50 (DLD-1): > 100 µM (inactive)
GI50 (DMS-114): 99.1 µM (inactive)
GI50 (HOP-18): 2.26 µM (inactive)
GI50 (KM-20L2): > 100 µM (inactive)
GI50 (M19-MEL): > 100 µM (inactive)
GI50 (SNB-78): > 100 µM (inactive)
GI50 (XF498): 91.6 µM (inactive)

Cc1ccc(Oc2ccccc2N)cc1
GI50 (DLD-1): 35 µM (inactive)
GI50 (DMS-114): 17.4 µM (inactive)
GI50 (DMS-273): 32 µM (inactive)
GI50 (HOP-18): > 100 µM (inactive)
GI50 (KM-20L2): 12.7 µM (inactive)
GI50 (RXF 631): > 100 µM (inactive)
GI50 (SNB-78): 29 µM (inactive)
GI50 (XF498): 17.8 µM (inactive)

Cc1[nH]c2ccccc2c1CC/C(=N\Nc1ccccc1)c1ccccc1
GI50 (DLD-1): > 100 µM (inactive)
GI50 (DMS-273): > 100 µM (inactive)
GI50 (KM-20L2): > 100 µM (inactive)
GI50 (RXF 631): > 100 µM (inactive)
GI50 (SNB-78): > 100 µM (inactive)
GI50 (XF498): 78.2 µM (inactive)

COC(=O)NN1C(C)=C(C(=O)OC)C2(C#N)C(C(=O)OC)=C(C)N(NC(=O)OC)C12N (stereo not drawn)
GI50 (DLD-1): > 100 µM (inactive)
GI50 (DMS-114): > 100 µM (inactive)
GI50 (DMS-273): > 100 µM (inactive)
GI50 (HOP-18): > 100 µM (inactive)
GI50 (KM-20L2): > 100 µM (inactive)
GI50 (M19-MEL): > 100 µM (inactive)
GI50 (RXF 631): > 100 µM (inactive)
GI50 (SNB-78): > 100 µM (inactive)
GI50 (XF498): > 100 µM (inactive)
